# Reference: PMC9727064, “Performance assessment and economic analysis of a human Liver-Chip for predictive toxicology” (Communications Medicine, 2022)
# “And” between values parts separate entries of the source, which are not always exact repeats. Equal values may be shown once. Read-outs that look alike come from different tables or passages of the source.
# How the values were obtained:
# [1] = human, total plasma Cmax, cited from earlier work
# [2] = plasma, cited from earlier work
# [3] = tested on: human Liver-Chip (hepatocytes and non-parenchymal cells); conditions: for Morphology Score: injury score 0-4, averaged, one line per replicate chip
# Experimental: At least four to six brightfield images were acquired per chip for morphology analysis. […] Brightfield images were acquired across three fields of view on days 1, 3, and 7 for each cycle. Cytotoxicity classification was performed while acquiring images for both NPCs and hepatocytes. Images were then scored zero to four by blinded individuals (n = 2) based on severity of agglomeration of cell debris for both channels. The scoring matrix and representative images have been included in the supplement (Supplementary Fig. 1).
# Hepatocyte layer on Chips
# Non-parenchymal cell layer on Chips
# Supplementary Figure 1. (a) Representative brightfield images to depict the cellular morphology score in the top channel of the Liver-Chip which contains hepatocytes. A score of 0 represents no hepatotoxicity detected, which is defined by 95-100% healthy hepatocyte morphology, hexagonal shape containing binucleated cells, clear cell cytoplasm, distinctive cell junctions and less than 5% dead cells. A score of 1 […]
# cells. A score of 2 represents mild hepatotoxicity with > 70% monolayer of hepatocytes visible, evidence that cells have begun to lose their distinct cell junctions, many cells contain a granulated cytoplasm but < 30% are dead cells. A score of 3 represents moderate hepatotoxicity with severe granulation of cytoplasm and most of the cells have lost their junctions. Approximately 50% of the cells are considered dead. A score of 4 represents severe hepatotoxicity with agglomeration of cell debris and > 50% of the cells are considered dead. The pores on the membrane become visible as there is no longer a cellular monolayer. (b) Representative brightfield images to depict the cellular morphology score in the bottom channel of the Liver-Chip which contains non-parenchymal cells. A score of 0 represents no cytotoxicity detected, with an intact monolayer and <1% of the cells are dead. A score of 1 represents at least 90% of the monolayer is present and there are <10% dead cells. A score of 2 represents mild cytotoxicity with > 80% of the monolayer present and < 20% are dead cells. A score of 3 represents moderate cytotoxicity with > 50% of the monolayer present and < 50% are dead cells. A score of 4 represents severe cytotoxicity with > 50% of the cells are considered dead. (bar, 50 μm). […]
# [4] = tested on: human Liver-Chip (primary human hepatocytes); test: Liver-Chip alanine transaminase (ALT) release in top channel effluent (ELISA); type: cell-based; conditions: for ALT change in words: Liver-Chip effluent
# Excerpt: (§1) Cycles 1 to 4 tested 6–8 concentrations in duplicate for each of 10–13 drugs. To determine which sampling strategy was optimal for cycles 1 to 4 (16 doses × 1 replicate, 8 × 2, 5 × 3, or 4 × 4), we generated three different “dose-response” synthetic datasets, each distorted by different noise levels (low, medium, or high). For each of these datasets, we performed curve-fitting analyses and calculated the Root Mean Square Error between the “true” and estimated IC50 parameter. […] Some drugs were also repeated across cycles (on different donors or at different concentrations) to ensure experimental robustness. However, to replicate a more typical study design likely to be carried out by scientists in the pharmaceutical industry, we created cycle 5 with 6 drugs, where each was tested in 4 concentrations in triplicate. For each cycle, chips were dosed with drug over 8 days (referred to as Day 0 through Day 7).
# (§2) The drug dosing concentrations were determined from the unbound human Cmax of each drug. First, the expected fraction of drug unbound in media with 2% FBS was extrapolated from plasma binding data for each drug. Dosing concentrations were then back calculated such that the unbound fraction in media would reflect relevant multiples of unbound human Cmax (Supplementary Data 1).
# (§3) On the first dosing day (Day 0), all chips were imaged using the ECHO microscope. Five hundred microliters of effluent was collected from all four reservoirs of the pod and placed in a labeled 96-well plate. After collection, all the remaining media was carefully aspirated before dosing with 3.8 mL of corresponding dosing solution. Dosing occurred on study days 0, 2, and 4 for chips flowing at 30 µL/h, and on days 0, 1, 2, 3, 4, 5, and 6 for chips flowing at 150 µL/h. Effluent collection occurred on days 1, 3, and 7.
# (§4) Top channel outlet effluents were analyzed to quantify albumin and alanine transaminase (ALT) levels on days 1, 3, and 7 using sandwich ELISA kits (Abcam, Albumin ab179887, ALT ab234578) according to vendor-provided protocols. Frozen (−80 °C) effluent samples were thawed overnight at 4 °C prior to assay. The Hamilton Vantage liquid handling platform was used to manage effluent dilutions (1:500 for albumin, neat for ALT), preparation of standard curves, and addition of antibody cocktail. Absorbance at 450 nm was measured using the SynergyNeo Microplate Reader (BioTek).
# [5] = tested on: human Liver-Chip (primary human hepatocytes); test: Liver-Chip albumin production in top channel effluent (ELISA); type: cell-based; conditions: for Albumin change in words: Liver-Chip effluent
# Excerpt: as §1, §2, §3, §4
# All statistical analyses were conducted in R[21] (version 4.1.2) and figures were produced using the R package ggplot2[22] (version 3.3.5). The dose-response analysis (Fig. 4) was carried out using the popular drc R package developed by Ritz et al.[23] using the generalized log-logistic dose-response model. The error bars in Figs. 3 and 4, correspond to the standard errors of the mean. The circles in Fig. 3 correspond to the samples used to calculate the corresponding statistics. The analysis of significance in Fig. 3 was performed using paired t-test across different days (same donor) and unpaired t-test across different donors (same day). In Fig. 3 the number of samples used were n = 3 for donor two, and n = 4 for donor three. For both donors, the number of the freshly thawed hepatocyte samples used to estimate the corresponding log2(Fold Change) were n = 4. Finally, the analysis of significance in Fig. 3 was performed using paired t-test.
# [6] = expanded drug list, lowest concentration causing an increase in ALT release, donor 1
# [7] = ref Vorrink, S. U., Zhou, Y., Ingelman- Sundberg, M. & Lauschke, V.M. (30)
# [8] = lowest concentration causing an increase in cellular morphology score, donor 1
# [9] = lowest concentration causing an increase in cellular morphology score, donor 2
# [10] = concentration causing a 50% reduction in albumin production
# [11] = expanded drug list, lowest concentration causing an increase in ALT release, donor 2
# [12] = expanded drug list, lowest multiplier causing a 50% reduction in albumin production
# [13] = expanded drug list, lowest concentration causing an increase in morphology score, donor 1
# [14] = reference data from the literature, no reference
# [15] = lowest concentration causing an increase in ALT protein, donor 1
# [16] = lowest concentration causing an increase in ALT protein, donor 2
structure (smiles),measurement,setting,value
C=C[C@@H]1C[C@]1(NC(=O)[C@@H]1C[C@@H](Oc2ncc(OC)c3ccc(Cl)cc23)CN1C(=O)[C@@H](NC(=O)OC(C)(C)C)C(C)(C)C)C(=O)NS(=O)(=O)C1CC1 [Asunaprevir],Human Cmax Total,"[1]; ref Schulz, M. & Schmoldt, A. (64)",764.4 nM
same,Expected Fraction Unbound in Plasma,"[2]; ref Lau, S.W.J. (65)",0.012
same,Morphological injury score change in words,[3],concentration and time-dependent changes
same,Morphology Donor 1,[3]; human,1000 unbound human Cmax multiplier
same,ALT change in words,[4],no elevation of ALT
same,ALT Donor 1,[4]; [6],> 1000 unbound human Cmax multiplier
same,Albumin change in words,[5],concentration and time-dependent changes
O=c1[nH]c(=O)n([C@@H]2O[C@H](CO)[C@@H](O)[C@@H]2F)cc1I [FIRU],Human Cmax Total,[1]; [7],*0.64µM
same,Expected Fraction Unbound in Plasma,"[2]; ref Scott, L. J. (69)",*0.36
same,Morphology Donor 1,[3]; [8],>300 multiples of the unbound human Cmax
same,Morphology Donor 2,[3]; [9],>300 multiples of the unbound human Cmax
same,ALT Donor 1,[4],>300 multiples of the unbound human Cmax
same,ALT Donor 2,[4],>300 multiples of the unbound human Cmax
same,Albumin IC50 Donor 1,[5]; [10],>300 multiples of the unbound human Cmax
same,Albumin IC50 Donor 2,[5]; [10],>300 multiples of the unbound human Cmax
CC(CCc1ccccc1)NCC(O)c1ccc(O)c(C(N)=O)c1 (centres unmarked) [Labetalol],Human Cmax Total,[1]; [7],2680 nM
same,Expected Fraction Unbound in Plasma,"[2]; ref Lau, S.W.J. (65)",0.5
same,Morphology Donor 1,[3]; human,> 100 unbound human Cmax multiplier
same,Morphology Donor 2,[3]; human,100 unbound human Cmax multiplier
same,ALT Donor 1,[4]; [6],> 100 unbound human Cmax multiplier
same,ALT Donor 2,[4]; [11],100 unbound human Cmax multiplier
same,Albumin IC50 Donor 1,[5]; [12],26 unbound human Cmax multiplier
same,Albumin IC50 Donor 2,[5]; [12],40 unbound human Cmax multiplier
O=C(NC1CCN(CCCCC2(C(=O)NCC(F)(F)F)c3ccccc3-c3ccccc32)CC1)c1ccccc1-c1ccc(C(F)(F)F)cc1 [Lomitapide],Human Cmax Total,"[1]; ref Dawson, S., Stahl, Paul, N., Barber, J. & Kenna, J. G. (71)",1.7 nM
same,Expected Fraction Unbound in Plasma,"[2]; ref Lau, S.W.J. (65)",0.002
same,Morphology Donor 1,[3]; [13],< 0.1 unbound human Cmax multiplier
same,ALT Donor 1,[4]; [6],> 1000 unbound human Cmax multiplier
same,Albumin IC50 Donor 1,[5]; [12],4 unbound human Cmax multiplier
Cc1cc2c(s1)Nc1ccccc1N=C2N1CCN(C)CC1 [Olanzapine],Human Cmax Total,"[1]; ref Brunton, L. L., Hilal-Dandan, R. & Knollmann, B. C. (72)",0.09 nM
same,Expected Fraction Unbound in Plasma,[2]; [14],0.07
same,Morphology Score,[3]; Concentration_Day3 = 1,2 and 1
same,Morphology Score,[3]; Concentration_Day3 = 3,1.333 and 1
same,Morphology Score,[3]; Concentration_Day3 = 10,2 and 1
same,Morphology Score,[3]; Concentration_Day3 = 30,2
same,Morphology Score,[3]; Concentration_Day3 = 100,1.667 and 1.333
same,Morphology Score,[3]; Concentration_Day3 = 300,1.333 and 2
same,Morphology Donor 1,[3]; [8],>300 multiples of the unbound human Cmax
same,Morphology Donor 2,[3]; [9],>300 multiples of the unbound human Cmax
same,Morphology Donor 3,"[3]; lowest concentration causing an increase in cellular morphology score, donor 3",>300 multiples of the unbound human Cmax
same,ALT Donor 1,[4]; [15],>300 multiples of the unbound human Cmax
same,ALT Donor 2,[4]; [16],>300 multiples of the unbound human Cmax
same,ALT Donor 3,"[4]; lowest concentration causing an increase in ALT protein, donor 3",>300 multiples of the unbound human Cmax
Cc1cn([C@H]2C=C[C@@H](CO)O2)c(=O)[nH]c1=O [Stavudine],Human Cmax Total,"[1]; ref Xu, J. J. et al. (36)",3460 nM
same,Expected Fraction Unbound in Plasma,"[2]; ref Lau, S.W.J. (65)",1
same,Morphology Donor 1,[3]; human,300 unbound human Cmax multiplier
same,Morphology Donor 2,[3]; human,300 unbound human Cmax multiplier
same,ALT Donor 1,[4]; [6],300 unbound human Cmax multiplier
same,ALT Donor 2,[4]; [11],> 300 unbound human Cmax multiplier
same,Albumin IC50 Donor 1,[5]; [12],> 60 unbound human Cmax multiplier
same,Albumin IC50 Donor 2,[5]; [12],132 unbound human Cmax multiplier
Nc1c2c(nc3ccccc13)CCCC2 [Tacrine],Human Cmax Total,"[1]; ref Xu, J. J. et al. (36)",100 nM
same,Expected Fraction Unbound in Plasma,"[2]; ref Lau, S.W.J. (65)",0.25
same,Morphology Donor 1,[3]; [13],> 300 unbound human Cmax multiplier
same,Morphology Donor 2,"[3]; expanded drug list, lowest concentration causing an increase in morphology score, donor 2",> 1000 unbound human Cmax multiplier
same,ALT change in words,[4],not associated with any release of ALT
same,ALT Donor 1,[4]; [6],> 300 unbound human Cmax multiplier
same,ALT Donor 2,[4]; [11],> 1000 unbound human Cmax multiplier
same,Albumin change in words,[5],not associated with any release of ALT or decline in albumin
CC[C@H]1OC(=O)[C@H](C)C(=O)[C@H](C)[C@@H](O[C@@H]2O[C@H](C)C[C@H](N(C)C)[C@H]2O)[C@](C)(OC)C[C@@H](C)C(=O)[C@H](C)[C@H]2N(CCCCn3cnc(-c4cccnc4)c3)C(=O)O[C@]12C [Telithromycin],Human Cmax Total,[1]; [14],2790 nM
same,Expected Fraction Unbound in Plasma,"[2]; ref Lau, S.W.J. (65)",0.4
same,Morphological injury score change in words,[3],concomitant increase
same,Morphology Donor 1,[3]; human,100 unbound human Cmax multiplier
same,ALT change in words,[4],concomitant increase
same,ALT Donor 1,[4]; [6],30 unbound human Cmax multiplier
same,Albumin change in words,[5],decrease in albumin
same,Albumin IC50 Donor 1,[5]; [12],13 unbound human Cmax multiplier
Cc1ccc(C(=O)c2cc(O)c(O)c([N+](=O)[O-])c2)cc1 [Tolcapone],Human Cmax Total,[1]; [14],47600 nM
same,Expected Fraction Unbound in Plasma,"[2]; ref Lau, S.W.J. (65)",0.0012
same,Morphology Donor 1,[3]; [8],10 multiples of the unbound human Cmax
same,Morphology Donor 2,[3]; [9],100 multiples of the unbound human Cmax
same,ALT Donor 1,[4]; [15],100 multiples of the unbound human Cmax
same,ALT Donor 2,[4]; [16],30 multiples of the unbound human Cmax
same,Albumin IC50 Donor 1,[5]; [10],3 multiples of the unbound human Cmax
same,Albumin IC50 Donor 2,[5]; [10],39 multiples of the unbound human Cmax
